Test results reported in ChEMBL document CHEMBL1133391, “Synthesis and antibacterial activity of 2alpha-functionalized 1beta-methylcarbapenems related to KR-21012” (Bioorg Med Chem Lett, 2000).
In brackets after ≈: the same amount, converted by molar mass.

Experiments:
[1] = Tmax at a single subcutaneous administration of 40 mg/kg in mice; assay type: ADME, organism-based; parameters: dose 40 mg/kg, route subcutaneous; conditions: mouse, in vivo, sc
[2] = Half-life at a single subcutaneous administration of 40 mg/kg in mice; assay type: ADME, organism-based; parameters: dose 40 mg/kg, route subcutaneous; conditions: mouse, in vivo, sc
[3] = Peak concentration at a single subcutaneous administration of 40 mg/kg in mice; assay type: ADME, organism-based; parameters: dose 40 mg/kg, route subcutaneous; conditions: mouse, in vivo, sc
[4] = molecular target: T1, Dipeptidase 1 (Sus scrofa) (UniProt P22412); assay: Compound was evaluated for DHP-1 stability by using purified porcine renal enzyme; assay type: functional
T1 sequence (whole entry): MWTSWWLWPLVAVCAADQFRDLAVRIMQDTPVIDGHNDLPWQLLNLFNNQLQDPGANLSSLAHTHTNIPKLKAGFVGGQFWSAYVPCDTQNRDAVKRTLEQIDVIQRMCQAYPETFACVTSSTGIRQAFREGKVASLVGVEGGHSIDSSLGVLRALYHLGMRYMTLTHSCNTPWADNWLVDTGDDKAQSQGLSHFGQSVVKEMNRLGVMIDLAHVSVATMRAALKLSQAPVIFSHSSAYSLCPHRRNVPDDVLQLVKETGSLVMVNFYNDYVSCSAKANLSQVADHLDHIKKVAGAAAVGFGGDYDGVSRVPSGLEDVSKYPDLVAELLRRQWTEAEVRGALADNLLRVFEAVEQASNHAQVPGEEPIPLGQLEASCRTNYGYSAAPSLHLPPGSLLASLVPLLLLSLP

[5] = system: Enterobacter cloacae; assay: Compound was evaluated for in vitro antibacterial activity against Enterobacter cloacae P99 strain by agar dilution method; assay type: functional
[6] = system: Escherichia coli; assay: Compound was evaluated for in vitro antibacterial activity against Escherichia coli 078 strain by agar dilution method; assay type: functional
[7] = system: Escherichia coli; assay: Compound was evaluated for in vitro antibacterial activity against Escherichia coli 1507 E strain by agar dilution method; assay type: functional
[8] = system: Klebsiella oxytoca; assay: Compound was evaluated for in vitro antibacterial activity against Klebsiella oxytoca 1082 E strain by agar dilution method; assay type: functional
[9] = system: Klebsiella aerogenes; assay: Compound was evaluated for in vitro antibacterial activity against Klebsiella aerogenes 1522 E strain by agar dilution method; assay type: functional
[10] = system: Mus musculus; assay: In vivo protective activity administered sc 1 hr after ip Escherichia coli 078 strain infection in mice; assay type: functional; conditions: read-out: PD50
[11] = system: Mus musculus; assay: In vivo protective activity administered sc 1 hr after ip Streptococcus pyogenes 77A strain infection in mice; assay type: functional; conditions: read-out: PD50
[12] = system: Pseudomonas aeruginosa; assay: Compound was evaluated for in vitro antibacterial activity against Pseudomonas aeruginosa 1771 strain by agar dilution method; assay type: functional
[13] = system: Salmonella typhimurium; assay: Compound was evaluated for in vitro antibacterial activity against Salmonella Typhimurium by agar dilution method; assay type: functional, Salmonella enterica subsp. enterica serovar Typhimurium; conditions: Salmonella enterica
[14] = system: Streptococcus pyogenes; assay: Compound was evaluated for in vitro antibacterial activity against Streptococcus pyogenes 77A strain by agar dilution method; assay type: functional
[15] = system: Staphylococcus aureus; assay: Compound was evaluated for in vitro antibacterial activity against Staphylococcus aureus SG511 strain by agar dilution method; assay type: functional
[16] = system: Enterococcus faecium; assay: Compound was evaluated for in vitro antibacterial activity against Streptococcus faecium MD strain by agar dilution method; assay type: functional
[17] = system: Pseudomonas aeruginosa; assay: Compound was evaluated for in vitro antibacterial activity against Pseudomonas aeruginosa 1771 M strain by agar dilution method; assay type: functional
[18] = system: Staphylococcus aureus; assay: Compound was evaluated for in vitro antibacterial activity against Staphylococcus aureus 285 strain by agar dilution method; assay type: functional
[19] = Urinary recovery by disk method using Streptococcus pyogenes (0-24 h); assay type: ADME, organism-based; conditions: mouse, urine; read-out: UR
[20] = system: Mus musculus; assay: Area under the curve was determined for the compound at a single subcutaneous administration of 40 mg/kg in mice; assay type: ADME, organism-based; parameters: dose 40 mg/kg, route subcutaneous; unit not given here; conditions: in vivo, sc
[21] = system: Mus musculus; assay: In vivo protective activity administered sc 1 hr after ip Enterobacter cloacae P strain infection in mice; assay type: functional; conditions: read-out: PD50
[22] = molecular target: T1, Dipeptidase 1 (Sus scrofa); assay: Compound was evaluated for DHP-1 stability by using purified porcine renal enzyme which is represented as the relative rate of hydrolysis compared to imipenem (rate=100); assay type: functional

Compound	Tmax [1] [min]	half-life [2] [min]	Cmax [3] [ng/mL]	MIC [5] [µg/mL]	MIC [6] [µg/mL]	MIC [7] [µg/mL]	MIC [8] [µg/mL]	MIC [9] [µg/mL]	ED50 [10] [mg/kg]	ED50 [11] [mg/kg]	MIC [12] [µg/mL]	MIC [13] [µg/mL]	MIC [14] [µg/mL]	MIC [15] [µg/mL]	MIC [16] [µg/mL]	MIC [17] [µg/mL]	MIC [18] [µg/mL]	also measured
C[C@@H](O)[C@H]1C(=O)N2C(C(=O)O)=C(S[C@@H]3CN[C@H](C(=O)N(C)C)C3)[C@H](C)[C@H]12 [MEROPENEM]	12.6	14.4	7600	0.025 (≈ 0.0652 µM)	0.013 (≈ 0.0339 µM)	0.025 (≈ 0.0652 µM)	0.049 (≈ 0.128 µM)	0.049 (≈ 0.128 µM)	1.24	4.6	0.361 (≈ 0.941 µM)	0.049 (≈ 0.128 µM)	0.013 (≈ 0.0339 µM)	0.013 (≈ 0.0339 µM)	6.25 (≈ 16.3 µM)	0.049 (≈ 0.128 µM)	0.195 (≈ 0.509 µM)	Activity [4]: 32
C[C@H]1C([C@H](O)C(C)(C)C)=C(C(=O)[O-])N2C(=O)[C@H]([C@@H](C)O)C12.[Na+] (stereo not given in full)	–	–	–	6.25	0.781	0.781	12.5	6.25	–	–	100	1.56	0.049	0.391	12.5	6.25	0.391	–
CC[C@@H](O)C1=C(C(=O)[O-])N2C(=O)[C@H]([C@@H](C)O)C2[C@H]1C.[Na+] (stereo not given in full)	–	–	–	0.781	0.098	0.098	3.12	0.391	–	–	100	0.391	0.625	0.098	3.12	1.56	0.098	–
CC[C@H](O)C1=C(C(=O)[O-])N2C(=O)[C@H]([C@@H](C)O)C2[C@H]1C.[Na+] (stereo not given in full)	–	–	–	0.781	0.391	0.391	12.5	0.781	–	–	100	0.781	0.049	0.391	12.5	6.25	0.391	–
CCC(C)[C@@H](O)C1=C(C(=O)[O-])N2C(=O)[C@H]([C@@H](C)O)C2[C@H]1C.[Na+] (stereo not given in full)	–	–	–	3.12	0.195	0.195	3.12	3.12	–	–	100	0.195	0.013	0.098	1.56	1.56	0.098	–
CC(C)[C@@H](O)C1=C(C(=O)[O-])N2C(=O)[C@H]([C@@H](C)O)C2[C@H]1C.[Na+] (stereo not given in full)	15	41.4	25000	1.56	0.049	0.049	1.56	0.391	1.3	1.19	100	0.098	0.007	0.098	1.56	0.781	0.098	dose excreted [19]: 25.1%; AUC [20]: 20.9; Activity [4]: 21; ED50 [21]: 1.37 mg/kg
CC(C)[C@H](O)C1=C(C(=O)[O-])N2C(=O)[C@H]([C@@H](C)O)C2[C@H]1C.[Na+] (stereo not given in full)	–	–	–	12.5	1.56	0.391	25	12.5	–	–	100	0.781	0.025	0.781	12.5	1.56	0.781	–
CO[C@H]1CCC[C@H]2C1=C(C(=O)[O-])N1C(=O)[C@H]([C@@H](C)O)[C@@H]21.[Na+] [SANFETRINEM SODIUM]	22.2	33	28800	3.12	0.049	0.195	1.56	0.391	3.13	1.46	25	0.195	0.007	0.098	1.56	0.391	0.049	dose excreted [19]: 20.5%; AUC [20]: 27.39; Activity [4]: 20; ED50 [21]: 1.18 mg/kg
C[C@H]1C([C@H](O)C2CCCC2)=C(C(=O)[O-])N2C(=O)[C@H]([C@@H](C)O)C12.[Na+] (stereo not given in full)	–	–	–	6.25	0.195	0.195	3.12	1.56	–	–	100	0.195	0.013	0.098	0.781	0.781	0.098	–
C[C@H]1C([C@@H](O)C2CC2)=C(C(=O)[O-])N2C(=O)[C@H]([C@@H](C)O)C12.[Na+] (stereo not given in full)	–	–	–	0.781	1.56	0.195	6.25	0.781	–	–	100	1.56	0.098	0.195	3.12	3.12	0.781	–
C[C@H]1C([C@H](O)C2CC2)=C(C(=O)[O-])N2C(=O)[C@H]([C@@H](C)O)C12.[Na+] (stereo not given in full)	10.2	18.6	18100	0.781	0.098	0.049	0.781	0.195	23.1	7.94	100	0.098	0.007	0.049	0.781	1.56	0.049	dose excreted [19]: 14.3%; AUC [20]: 6.86; Activity [22]: 38; ED50 [21]: 12.6 mg/kg
